Test results: PMC11661359, “Structure guided functional analysis of the S. cerevisiae Mre11 complex” (Research Square, 2024)
Residue numbers refer to the chain shown, from its start. In names and notes the source's numbering stands.

Key:
[1] = target: T1, S. cerevisiae Mre11-Rad50 (MR) complex (Saccharomyces cerevisiae, UniProt P12753, E1235Q, form not given); assay: cryo-EM structure, […] Å; assay type: binding; conditions: with 83-mer dsDNA, MgCl2 and MnCl2; ATP bound at Walker A/B interface of Rad50 dimer; hydrolysis-deficient mutant
T1 construct: full-length Rad50 and Mre11 (C-terminal 1xFLAG on Mre11 given for MR-EQ), purified from yeast; 2:2 complex, no Xrs2; with Double-strand break repair protein MRE11
T1 sequence (P12753 1-1312 E1235Q): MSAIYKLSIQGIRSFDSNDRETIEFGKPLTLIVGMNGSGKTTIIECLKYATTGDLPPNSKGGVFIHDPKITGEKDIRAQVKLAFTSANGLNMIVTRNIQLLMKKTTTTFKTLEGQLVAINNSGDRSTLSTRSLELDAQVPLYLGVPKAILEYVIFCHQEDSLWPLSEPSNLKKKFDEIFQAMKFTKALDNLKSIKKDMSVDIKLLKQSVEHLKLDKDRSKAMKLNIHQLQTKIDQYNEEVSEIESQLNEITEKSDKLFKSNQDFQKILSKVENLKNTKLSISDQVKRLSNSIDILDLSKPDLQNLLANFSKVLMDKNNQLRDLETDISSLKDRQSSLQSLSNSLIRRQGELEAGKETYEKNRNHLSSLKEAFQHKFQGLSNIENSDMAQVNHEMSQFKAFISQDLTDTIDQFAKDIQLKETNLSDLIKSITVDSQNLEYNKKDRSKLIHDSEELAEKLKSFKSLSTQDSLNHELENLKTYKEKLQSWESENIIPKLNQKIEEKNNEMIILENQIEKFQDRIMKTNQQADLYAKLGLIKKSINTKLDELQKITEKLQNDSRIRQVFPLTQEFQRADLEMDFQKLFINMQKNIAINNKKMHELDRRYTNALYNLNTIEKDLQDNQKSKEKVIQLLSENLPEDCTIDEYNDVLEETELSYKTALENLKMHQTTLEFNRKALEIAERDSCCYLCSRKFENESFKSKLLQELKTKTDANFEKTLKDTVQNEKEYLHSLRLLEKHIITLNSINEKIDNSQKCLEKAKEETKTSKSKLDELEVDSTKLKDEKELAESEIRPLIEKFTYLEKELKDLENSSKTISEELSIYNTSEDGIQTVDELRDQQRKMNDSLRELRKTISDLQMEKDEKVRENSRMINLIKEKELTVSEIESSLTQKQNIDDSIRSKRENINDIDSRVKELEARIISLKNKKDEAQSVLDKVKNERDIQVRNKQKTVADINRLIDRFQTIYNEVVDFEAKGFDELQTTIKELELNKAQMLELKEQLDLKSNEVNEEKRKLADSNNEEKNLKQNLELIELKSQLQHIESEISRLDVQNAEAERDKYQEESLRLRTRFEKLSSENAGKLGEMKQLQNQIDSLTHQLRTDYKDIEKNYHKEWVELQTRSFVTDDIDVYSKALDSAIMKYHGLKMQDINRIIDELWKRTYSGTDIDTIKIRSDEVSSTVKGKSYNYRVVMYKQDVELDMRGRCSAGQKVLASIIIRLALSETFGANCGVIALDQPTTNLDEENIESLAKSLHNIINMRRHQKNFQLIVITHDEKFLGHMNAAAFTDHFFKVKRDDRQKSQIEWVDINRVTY
T1 sequence (P32829 1-692 partner): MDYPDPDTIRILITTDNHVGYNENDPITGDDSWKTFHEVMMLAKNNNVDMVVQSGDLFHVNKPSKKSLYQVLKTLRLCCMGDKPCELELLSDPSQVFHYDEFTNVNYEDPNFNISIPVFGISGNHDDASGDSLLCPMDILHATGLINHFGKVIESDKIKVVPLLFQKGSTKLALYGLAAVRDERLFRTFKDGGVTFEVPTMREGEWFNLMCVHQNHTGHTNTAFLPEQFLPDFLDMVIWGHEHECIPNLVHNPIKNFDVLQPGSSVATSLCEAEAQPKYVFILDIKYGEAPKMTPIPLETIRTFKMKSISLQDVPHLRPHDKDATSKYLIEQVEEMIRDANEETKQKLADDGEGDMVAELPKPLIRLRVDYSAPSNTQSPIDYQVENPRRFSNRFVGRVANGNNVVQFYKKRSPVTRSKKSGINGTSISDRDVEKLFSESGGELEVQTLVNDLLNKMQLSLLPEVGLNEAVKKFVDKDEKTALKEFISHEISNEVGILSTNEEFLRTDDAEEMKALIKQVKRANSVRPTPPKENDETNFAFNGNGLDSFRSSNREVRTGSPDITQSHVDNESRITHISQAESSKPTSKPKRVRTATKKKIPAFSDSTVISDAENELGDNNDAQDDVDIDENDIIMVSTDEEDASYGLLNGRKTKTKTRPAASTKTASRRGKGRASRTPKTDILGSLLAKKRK

[2] = target: T2, S. cerevisiae Mre11-Rad50 (MR) complex (Saccharomyces cerevisiae, UniProt P12753, K192A/K195A/K196A, form not given); assay: ATP hydrolysis, radiolabelled phosphate by thin-layer chromatography; assay type: biochemical; conditions: 0-2 uM MR, ss and dsDNA, MgCl2, 90 min; labelled compound
T2 construct: full-length Rad50 and Mre11 (C-terminal 1xFLAG on Mre11 given for MR-EQ), purified from yeast; 2:2 complex, no Xrs2; with Double-strand break repair protein MRE11
T2 sequence (P12753 1-1312 K192A/K195A/K196A): T1 sequence (P12753 1-1312 E1235Q) with K192A, K195A, K196A, Q1235E
T2 sequence (P32829 1-692 partner): T1 sequence (P32829 1-692 partner)

[3] = target: T3, S. cerevisiae Rad50-E1235Q (R^EQ of the purified MR^EQ complex) (S. cerevisiae, UniProt P12753 1-1312, E1235 residue of Rad50 was mutated to Q); assay: cryo-EM structure; purified MR^EQ incubated with a 83-mer dsDNA in the presence of ATP, MgCl2 and MnCl2; 3.2 Å; conditions: both partners purified
T3 construct: Rad50, S. cerevisiae; residues 239-1089 (coiled coil arm and Zn hook) are said to be flexible and not traced; also called Rad50-EQ; source: S. cerevisiae, purified from yeast extracts together with Mre11-FLAG (FLAG-Agarose, Heparin-Sepharose, gel filtration)
T3 sequence: T1 sequence (P12753 1-1312 E1235Q)

## Nc1ncnc2c1ncn2[C@@H]1O[C@H](COP(=O)(O)OP(=O)(O)OP(=O)(O)O)[C@@H](O)[C@H]1O [ATP]
[1]
  cryo-EM structure, 3.2 Å: MR^EQ was incubated with a 83-mer double stranded DNA (dsDNA) in the presence of ATP
[2]
  ATP hydrolysis, radiolabelled phosphate by thin-layer chromatography: Rad50–3KA, Rad50-K60A R1201A and Rad50-R131A R1201A were as defective as the Rad50-EQ mutant

B1: S. cerevisiae Mre11 with a C-terminal 1xFLAG tag (Mre11 of the purified MR^EQ complex) (enzyme)
chain: T1 sequence (P32829 1-692 partner)
notes: Mre11, S. cerevisiae; residues 413-441 and 508-692 are said to be flexible and not traced; Two symmetry-related Mre11 subunits stand in the structure; also called M of MR^EQ; source: S. cerevisiae, purified from yeast extracts together with Rad50-E1235Q (FLAG-Agarose, Heparin-Sepharose, gel filtration); not shown: 1xFLAG, C-terminal, kept
[3]
  binding result: binds
